Results published in patent US9670227B2, “Thienopyrimidine derivatives, a process for their preparation and pharmaceutical compositions containing them” (LES LABORATOIRES SERVIER, priority 2013, dated 2017).
Like-named read-outs stand apart in the source and are kept apart here.

Columns and labels:
Mcl-1 protein = Mcl-1 protein (UniProtKB primary accession number: Q07820) (Homo sapiens, UniProt Q07820); assay: Inhibition of Mcl-1 by fluorescence polarisation, Method 1; format: binding; conditions: fluorescence polarisation; Method 1, or Method 2; read-out: IC50 (M) Mcl-1 FP
Sequence of Mcl-1 protein (Q07820 whole entry): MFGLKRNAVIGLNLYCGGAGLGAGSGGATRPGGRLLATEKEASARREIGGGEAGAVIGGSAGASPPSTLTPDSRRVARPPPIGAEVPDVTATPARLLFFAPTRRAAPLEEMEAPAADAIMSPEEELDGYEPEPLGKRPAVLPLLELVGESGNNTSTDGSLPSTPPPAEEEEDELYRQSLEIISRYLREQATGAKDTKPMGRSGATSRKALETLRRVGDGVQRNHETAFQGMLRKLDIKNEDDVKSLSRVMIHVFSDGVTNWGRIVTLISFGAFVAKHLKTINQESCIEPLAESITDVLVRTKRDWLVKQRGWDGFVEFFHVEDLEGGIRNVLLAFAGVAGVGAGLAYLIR
In short: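 FP competition, 11-point compound titration in 5% final DMSO; protein and labelled probe at 5 nM and 1 nM final in HEPES/NaCl/Tween 20 buffer, pH 7.4.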

[1] = tested on: H929 multiple myeloma tumour line; assay: In vitro cytotoxicity, Microculture Tetrazolium Assay; format: cell-based; conditions: H929 cells, 48 hours exposure, MTT, read-out: IC50 (μM) MTT H929
Experimental: The cytotoxicity studies were carried out on the H929 multiple myeloma tumour line.
The cells are distributed onto microplates and exposed to the test compounds for 48 hours.

SMILES	IC50 (Mcl-1 protein) [M]	IC50 ([1]; Homo sapiens, NCI-H929, 48 h) [µM]	IC50 [1] [µM]
Cc1c(-c2c(-c3ccn(C)n3)sc3ncnc(OC(Cc4ccccc4)C(=O)O)c23)ccc(OCCN2CCN(C)CC2)c1Cl [Example 506, (2R)-2-{[(5Sa)-5-{3-chloro-2-methyl-4-[2-(4-methylpiperazin-1-yl)ethoxy]phenyl}-6-(1-methyl-1H-pyrazol-3-yl)thieno[2,3-d]pyrimidin-4-yl]oxy}-3-phenylpropanoic acid]	7.5e-08	8.29	
Cc1c(-c2c(-c3ccoc3)sc3ncnc(OC(Cc4ccccc4)C(=O)O)c23)ccc(OCCN2CCN(C)CC2)c1Cl [Example 509, (2R)-2-{[(5Sa)-5-{3-chloro-2-methyl-4-[2-(4-methylpiperazin-1-yl)ethoxy]phenyl}-6-(furan-3-yl)thieno[2,3-d]pyrimidin-4-yl]oxy}-3-phenylpropanoic acid]	6.2e-08	1.46	
Cc1c(-c2c(-c3ccsc3)sc3ncnc(OC(Cc4ccccc4)C(=O)O)c23)ccc(OCCN2CCN(C)CC2)c1Cl [Example 510, (2R)-2-{[(5Sa)-5-{3-chloro-2-methyl-4-[2-(4-methylpiperazin-1-yl)ethoxy]phenyl}-6-(thiophen-3-yl)thieno[2,3-d]pyrimidin-4-yl]oxy}-3-phenylpropanoic acid]	3.9e-08	0.639	
Cc1c(-c2c(-c3cncs3)sc3ncnc(OC(Cc4ccccc4)C(=O)O)c23)ccc(OCCN2CCN(C)CC2)c1Cl [Example 512, (2R)-2-{[(5Sa)-5-{3-chloro-2-methyl-4-[2-(4-methylpiperazin-1-yl)ethoxy]phenyl}-6-(1,3-thiazol-5-yl)thieno[2,3-d]pyrimidin-4-yl]oxy}-3-phenylpropanoic acid]	1.3e-07	7.42	
Cc1cc(-c2sc3ncnc(OC(Cc4ccccc4)C(=O)O)c3c2-c2ccc(OCCN3CCN(C)CC3)c(Cl)c2C)cs1 [Example 514, (2R)-2-{[(5Sa)-5-{3-chloro-2-methyl-4-[2-(4-methylpiperazin-1-yl)ethoxy]phenyl}-6-(5-methylthiophen-3-yl)thieno[2,3-d]pyrimidin-4-yl]oxy}-3-phenylpropanoic acid]	9.6e-08	1.7	
Cc1cscc1-c1sc2ncnc(O[C@H](Cc3ccccc3)C(=O)O)c2c1-c1ccc(OCCN2CCN(C)CC2)c(Cl)c1C [Example 516, (2R)-2-{[(5Sa)-5-{3-chloro-2-methyl-4-[2-(4-methylpiperazin-1-yl)ethoxy]phenyl}-6-(4-methylthiophen-3-yl)thieno[2,3-d]pyrimidin-4-yl]oxy}-3-phenylpropanoic acid]	1.3e-07		5.07
Cc1c(-c2c(Br)sc3ncnc(OC(Cc4ccccc4)C(=O)O)c23)ccc(OCCN2CCN(C)CC2)c1Cl [Example 518, (2R)-2-[(6-bromo-(5Sa)-5-{3-chloro-2-methyl-4-[2-(4-methylpiperazin-1-yl)ethoxy]phenyl}thieno[2,3-d]pyrimidin-4-yl)oxy]-3-phenylpropanoic acid]	3.5e-08	9.18	
COc1ccccc1CC(Oc1ncnc2sc(-c3cc(F)c(F)c(F)c3)c(-c3ccc(OCCN4CCN(C)CC4)c(Cl)c3C)c12)C(=O)O [Example 523, (2R)-2-{[(5Sa)-5-{3-chloro-2-methyl-4-[2-(4-methylpiperazin-1-yl)ethoxy]phenyl}-6-(3,4,5-trifluorophenyl)thieno[2,3-d]pyrimidin-4-yl]oxy}-3-(2-methoxyphenyl)propanoic acid]	1.8e-09	0.532	
COc1ccccc1CC(Oc1ncnc2sc(-c3cc(F)c(F)c(OC)c3)c(-c3ccc(OCCN4CCN(C)CC4)c(Cl)c3C)c12)C(=O)O [Example 524, (2R)-2-{[(5Sa)-5-{3-chloro-2-methyl-4-[2-(4-methylpiperazin-1-yl)ethoxy]phenyl}-6-(3,4-difluoro-5-methoxyphenyl)thieno[2,3-d]pyrimidin-4-yl]oxy}-3-(2-methoxyphenyl)propanoic acid]	3.1e-08	0.417	
